In patent publication US20140249139A1, “Quinazoline Derivatives” (NOVARTIS AG, priority 2011, published 2014):

Each molecule was assayed on murine B cells (assay: Murine B cell activation: CD86 expression on CD19 positive B cells after anti-IgM stimulation). Conditions: Balb/c mouse splenocytes, anti-IgM 30 μg/ml, 24 hours, read-out: mCD86/ IC50 CD86.
Assay type: cell-based
Description: PI3Kδ has been recognized to modulate B cell function when cells are stimulated through the B cell receptor (BCR) (Okkenhaug et al. Science 297:1031 (2002). For assessing the inhibitory property of compounds on B cell activation, the upregulation of activation markers CD86 and CD69 on murine B cells derived from mouse spleen […] is measured after stimulation with anti-IgM. CD69 is a well known activation marker for B and T cells (Sancho et al. Trends Immunol. 26:136 (2005). CD86 (also known as B7-2) is primarily expressed on antigen-presenting cells, including B cells. Resting B cells express CD86 at low levels, but upregulate it following stimulation of e.g. the BCR or IL-4 receptor. CD86 on a B cell interacts with CD28 on T cells. This interaction is required for optimal T cell activation and for the generation of an optimal IgG1 response (Carreno et al. Annu Rev Immunol. 20:29 (2002)).
Spleens from Balb/c mice were collected, splenocytes were isolated and washed twice with RPMI containing 10% foetal bovine serum (FBS), 10 mM HEPES, 100 Units/ml penicilline/streptomycine. RPMI supplemented in this way is subsequently referred to as medium. The cells were adjusted to 2.5×10^6 cells/ml in medium and 200 μl cell suspension ([…]) were added to the appropriate wells of 96 well plates.
Then the cells were stimulated by adding 50 μl anti-IgM mAb in medium (final concentration: 30 μg/ml). After incubation for 24 hours at 37° C., the cells were stained with the following antibody cocktails: anti-mouse CD86-FITC, anti-mouse CD69-PerCP-Cy5.5, anti-mouse CD19-PerCP for the assessment of B cells, and anti-mouse CD3-FITC, anti-mouse CD69-PE for the assessment of T cells (2 μl of each antibody/well). After one hour at room temperature (RT) in the dark the cells were transferred to 96 Deepwell plates. The cells were washed once with 1 ml PBS containing 2% FBS and after re-suspension in 200 μl the samples were analyzed on a FACS Calibur flow cytometer. Lymphocytes were gated in the FSC/SSC dot plot according to size and granularity and further analyzed for expression of CD19, CD3 and activation markers (CD86, CD69). Data were calculated from dot blots as percentage of cells positively stained for activation markers within the CD19+ or CD3+ population using BD CellQest Software.
For assessing the inhibitory property of compounds, compounds were first dissolved and diluted in DMSO followed by a 1:50 dilution in medium. Splenocytes from Balb/c mice were isolated, re-suspended and transfered to 96 well plates as described above (200 μl/well). The diluted compounds or solvent were added to the plates (25 μl) and incubated at 37° C. for 1 hour. Then the cultures were stimulated with 25 μl anti-IgM mAb/well (final concentration 30 μg/ml) for 24 hours at 37° C. and stained with anti-mouse CD86-FITC and anti-mouse CD19-PerCP (2 μl of each antibody/well). CD86 expression on CD19 positive B cells was quantified by flow cytometry as described above.
CNc1ncc(-c2ccc3ncnc(-c4cncc(C(=O)N5CCN(C)CC5)c4)c3c2)cc1C [Example 75, {5-[6-(5-Methyl-6-methylamino-pyridin-3-yl)-quinazolin-4-yl]-pyridin-3-yl}-(4-methyl-piperazin-1-yl)-methanone] was tested, and the IC50 was 54 nM. Molecule COc1ccc(-c2ccc3ncnc(-c4cccc(C(=O)N5CCN(C(C)=O)CC5)c4)c3c2)cc1S(=O)(=O)N1CCCC1 [Example 7] has an IC50 of 20.1 nM. Work on COc1ccc(-c2ccc3ncnc(-c4cncc(C(=O)N5CCNC(C)(C)C5)c4)c3c2)cc1C(F)(F)F [Example 81, (3,3-Dimethyl-piperazin-1-yl)-{5-[6-(4-methoxy-3-trifluoromethyl-phenyl)-quinazolin-4-yl]-pyridin-3-yl}-methanone] yielded an IC50 of 79 nM. Work on COc1ccc(-c2ccc3ncnc(-c4cc(F)cc(C(=O)N5CCN(C(C)=O)CC5)c4)c3c2)cn1 [Example 110, 1-(4-{3-Fluoro-5-[6-(6-methoxy-pyridin-3-yl)-quinazolin-4-yl]-benzoyl}-piperazin-1-yl)-ethanone] yielded an IC50 of 155 nM. In the case of COc1ncc(-c2ccc3ncnc(-c4cccc(C(=O)N5CCN(C)CC5)c4)c3c2)cn1 [Example 2], the IC50 is reported as 69.5 nM. Work on COc1ccc(-c2ccc3ncnc(-c4ccc(C)c(C(=O)N5CC6CC5CN6C)c4)c3c2)cn1 (stereo not shown) [Example 117] yielded an IC50 of 101 nM. Work on COc1ccc(-c2ccc3ncnc(-c4cccc(C(=O)N5C[C@@H]6C[C@H]5CN6C)c4)c3c2)cn1 [Example 91, {3-[6-(6-Methoxy-pyridin-3-yl)-quinazolin-4-yl]-phenyl}-((1S,4S)-5-methyl-2,5-diaza-bicyclo[2.2.1]hept-2-yl)-methanone] yielded an IC50 of 44 nM.
